Experimental findings from patent publication US20050228019A1, “Enhancement of ampakine-Induced facilitation of synaptic responses by cholinesterase inhibitors” (priority 2004, published 2005) are described below.

Where “and” joins values, the source holds several entries; their conditions need not be identical. Identical values can stand only once. Entries after “also recorded” stand apart in the source; their conditions may differ.

Experiment [1] deals with lateral perforant path EPSPs in hippocampal slices. The experiment is described as follows: Lateral perforant path EPSPs in hippocampal slices. The format is cell-based, Sprague-Dawley rats. How it is done:
Hippocamlpal slice preparation: Hippocampal slices were prepared from male Sprague-Dawley rats, approximately 4-6 weeks of age. Rats were anesthetized with halothane and then sacrificed via decapitation. The brain was quickly removed and placed in icy, oxygenated artificial cerebrospinal fluid (ACSF) of the following composition for dissection (in mM): 124 NaCl, 3 KCl 1.25 KH2PO4, 5 MgSO4, 3.4 CaCl2, 10 D-glucose, 26 NaHCO3. A tissue block containing the hippocampus and surrounding tissue was prepared and glued to the stage of a vibrating tissue slicer (Leica VT1000; Bannockburn, Ill.). Slices were cut roughly perpendicular to the longitudinal axis of the hippocampus at a thickness of 350 μm. Slices were then immediately transferred to an interface recording chamber containing ACSF with the same constituents as described above except that the concentration of MgSO4 was lowered to 2.5 mM. Recording commenced after a recovery period that was ≧1 hour.
In vitro recording: Slices in the interface chamber were maintained at 32±1° C. and continuously perfused with oxygenated recording ACSF at a rate of 60 ml/hr. Additionally, warmed and humidified 95% O2/5% CO2 was blown into the chamber from above. The lateral perforant path was stimulated with twisted nichrome wire (65 μm) in the outer molecular layer of the dentate gyrus. A chloride-coated silver wire was placed in a single glass pipette filled with 2 M NaCl (˜5 MΩ resistance) for recording of field potentials. The recording electrode was also placed in the outer molecular layer of the dentate gyrus to sample the perforant path synapses. Stimulation intensity was adjusted to elicit responses that were typically 1-2 mV in amplitude and ≦50% of the maximal monophasic response. Evoked responses were recorded at 10 kHz using a differential AC amplifier (A-M Systems Model 1700; Carlsborg, Wash.). Baseline responses were monitored every 20 seconds for a minimum of 30 minutes, depending on the length of time necessary to achieve stability.
Drug application: AChE inhibitors enhance transmission at cholinergic synapses by blocking the enzyme that degrades the released transmitter acetylcholine. This causes acetylcholine to remain at relatively high concentrations for a longer period within the synapse and thereby exert a greater than normal effect on acetylcholine receptors. This greater than normal action on acetylcholine receptors can be partially mimicked by applying a compound that directly stimulates the receptors to a degree that is greater than that produced by normally released acetylcholine. […] The effect of each of these treatments on amplitude size and slope of the descending phase of the response waveform was continuously recorded online throughout the entirety of the experiment.

Experiment [2] concerns monosynaptic responses (field EPSPs) known to be mediated by AMPA receptors. In words: Chronic recording of evoked field EPSPs in freely moving rats (brain area not specified). The format is in vivo, Long-Evans rats. As to conditions: CX717 10 mg/kg ip alone. How it is done: (§1) Chronic recording preparation: Adult male Long-Evans rats with recording and stimulating electrodes chronically implanted into different areas of the brain known to subserve memory were used. The electrodes were stereotaxically inserted under pentobarbital anesthesia (65 mg/kg), using procedures essentially as described in earlier work (Stäubli and Xu, Journal of Neuroscience 15: 2445-2452, 1995; Stäubli and Scafidi, Journal of Neuroscience 17: 4820-4828, 1997). Briefly, monopolar stimulating electrodes (125 μm) were placed into the perforant path projections to hippocampal dentate gyrus and into the lateral olfactory tract projections to olfactory cortex. Following these steps, the leads of the electrodes were connected to a headstage that is permanently affixed to the rat's skull.
(§2) The animals were allowed approximately 10 days for recovery before being acclimated to a chronic recording cage (30×30×58 cm) and the attachment of a recording lead to their headstage. Biphasic stimulation pulses were provided by a digital stimulator that allows precise control of current intensity and pulse duration. […] The evoked responses were monitored on a storage oscilloscope and digitized at 10 kHz. The peak amplitude, half-width and area of each response were measured on-line and stored on disk for off-line analysis. […]

The subject of experiment [3] is lateral olfactory tract (LOT) evoked responses. In words: Lateral olfactory tract (LOT) evoked responses in awake rats. The format is in vivo, Long-Evans rats. How it is done: as §1
The animals were allowed approximately 10 days for recovery before being acclimated to a chronic recording cage (30×30×58 cm) and the attachment of a recording lead to their headstage. Biphasic stimulation pulses were provided by a digital stimulator that allows precise control of current intensity and pulse duration. Current intensity (10-80 μA) and pulse width (100-150 μsec) were adjusted to produce an evoked field excitatory postsynaptic potential (evoked fEPSP) that is 50-60% of the maximum amplitude of the population spike-free response which typically ranges between 3 and 7 mV. Recording signals were pre-amplified 10× via a FET operational amplifier built into the recording lead and fed into a second stage amplifier set to a gain of 10, with a band-pass of 1 Hz to 5 kHz. The evoked responses were monitored on a storage oscilloscope and digitized at 10 kHz. The peak amplitude, half-width and area of each response were measured on-line and stored on disk for off-line analysis. Baseline evoked EPSPs were tested at 20 sec intervals for a minimum of 30 to 45 min, or until stable (<10% variability in amplitude). The animal was free to move around the cage throughout the experiment, but was not allowed to fall asleep.
Drug Testing: Once baseline stability was established over at least 30 min, the animal was given an intraperitoneal injection of 1) Ampakine compound alone (e.g., CX717 at 10 mg/kg), or 2) acetylcholinesterase (AChE) inhibitor alone (e.g., physostigmine at 0.1 mg/kg, tacrin at 1 mg/kg, galantamine at 1 mg/kg or donezepil at 1.5 mg/kg) or 3) Ampakine compound plus AChE inhibitor combined, both administered at the same time and at the same dose as when given alone. Each rat received each of these three treatments, but only one treatment was given per day, with several days separating successive treatments. The effect of each of these treatments on amplitude size, halfwidth and area of the field EPSP was continuously recorded for several hours after injection.

Experiment [4] deals with perforant path evoked responses in the dentate gyrus. In words: Perforant path evoked responses in the dentate gyrus of awake rats. The format is in vivo, Long-Evans rats. How it is done: as §1, §2
Where [5] appears, read: CX717 10 mg/kg co-administered ip with physostigmine 0.1 mg/kg.

For the compound `C[N+](C)(C)CCOC(N)=O` [CCh, carbachol], in experiment [1] (CCh 0.5 μM alone, 20-30 minutes after the start of infusion), the EPSP amplitude is reported as 99.8±2.9 % of baseline. Further, in experiment [1] (CCh 0.5 μM by itself), the “effect on lateral perforant path EPSPs (amplitude or slope)” value is listed as “no discernible effects; also recorded: did not detectably affect synaptic transmission; also recorded: did not affect the amplitude or slope of evoked responses”.

Take `O=C(c1ccc2nonc2c1)N1CCOCC1` [CX717]: the “increase in amplitude of field EPSP” value in experiment [2] was 5+1%. In addition, the “LOT effect relative to CX717 alone” value in experiment [3] (setting [5]) is “several times greater than the effects it produced on its own; also recorded: approximately three-fold greater”; in experiment [3] (CX717 10 mg/kg co-injected ip with Aricept 1.5 mg/kg), “several times greater than the effects it produced on its own; also recorded: approximately two-fold greater”; in experiment [3] (CX717 10 mg/kg co-injected ip with tacrine 1 mg/kg) it was “several times greater than the effects it produced on its own; also recorded: more than two times greater”. For the same compound, in experiment [3] (setting [5]), the “increase in LOT response amplitude above baseline” value is 20-30%. Moreover, the “increase in LOT response amplitude” value in experiment [3] (CX717 10 mg/kg ip alone, 10 mg/kg) is ~5% and < 10%. Moreover, in experiment [4] (CX717 10 mg/kg co-injected ip with physostigmine 0.1 mg/kg), the “perforant path effect relative to CX717 alone” value is recorded as “significantly higher than the effects of CX717 alone”. Moreover, the “increase in perforant path evoked responses on co-administration” value in experiment [4] (CX717 with galantamine 1 mg/kg, data not shown) is given as “Effects of this kind were also obtained”. Also, the response amplitude in experiment [1] (CX717 40 μM alone, 30 min infusion, last 10 minutes of drug infusion) is on record as 103.5±1.0 % of baseline. The “increase in response size relative to CX717 alone” value in experiment [1] (CX717 40 μM in the presence of 0.5 μM CCh) is on record as “several fold greater; also recorded: significantly greater than those observed in the absence of CCh”.
